Values of other authors as cited in patent US12064376B2, “Rho kinase inhibitor releasing implants and related methods of use” (priority 2020, dated 2024).

Tests used:
[1] = test system: rabbit corneal endothelial damage model; conditions: freeze model, topical 0.4% or 0.8% drops BID or QID
[2] = test system: rabbit corneal endothelial damage model; conditions: scrape model
failed descemetorhexis = conditions: patient with failed descemetorhexis
[3] = test system: human corneal endothelial cells (HCEC); conditions: ripasudil 0.3 to 30 μM, 48 hours, HCEC in vitro
[4] = test system: Porcine corneal endothelial cells (CECs); conditions: 10 μM Y-27632 or 2.5 μM H-1152, 2, 24 and 48 hours
[5] = test system: rabbit model of corneal endothelial dysfunction; conditions: 1 mM topical, 2 drops QID three days then TID seven days
[6] = test system: monkey model of corneal endothelial cell damage
[7] = at 1 year, MCEC and ROCK inhibitor eyes
[8] = by 24 weeks, eleven patients, 1×10^6 human CECs per 300 μL with Y-27632

C[C@H]1CNCCCN1S(=O)(=O)c1cccc2cncc(F)c12 [ripasudil]
corneal haze versus controls [1]: less hazy corneas
proliferation in treated eyes [1]: better in the ROCK inhibitor treated eyes in a dose dependent fashion
wound size versus controls [1]: smaller
treated eyes clear ([2]; day 14, control 0/6): 5/6
corneal thickening ([2]; no change with control): ⅓
outcome of case study (failed descemetorhexis): salvaged patient
DNA and endothelial cell proliferation [3]: significantly enhanced

Cc1cncc2cccc(S(=O)(=O)N3CCCNC[C@@H]3C)c12 [H-1152]
cell morphology [4]: monolayer with polygonal structure and tight junctions
migration of cells from the scratch [4]: enhanced
corneal thickness versus controls [5]: less

C[C@@H](N)[C@H]1CC[C@H](C(=O)Nc2ccncc2)CC1 [Y-27632]
survival and engraftment of injected cultured endothelial cells ([6]; 5×10^5 CECs in 200 μl with ROCK inhibitor, intracameral): enhanced
adverse events ([6]; MCEC with concomitant ROCK inhibitor, intracameral injection): without adverse events such as glaucoma
corneal clarity [6, 7]: clear corneas
corneal endothelial cell density [6, 7]: 2000 cells/mm^2
cell morphology [4]: monolayer with polygonal structure and tight junctions
migration of cells from the scratch [4]: enhanced
preserving corneal clarity (Fuch's corneal dystrophy; Fuch's corneal dystrophy, eye drop): effective
corneal thickening (Fuch's corneal dystrophy; Fuch's patients): decrease
efficacy by severity of corneal endothelial dysfunction (Fuch's corneal dystrophy; mild (central edema) versus severe (diffuse edema)): effective in mild cases (central edema) of corneal endothelial dysfunction, but not severe (diffuse edema)
number of patients with >500 cells/mm^2 (bullous keratopathy; [8]): 11
number of patients with >1000 cells/mm^2 (bullous keratopathy; [8]): 10
adverse events (bullous keratopathy; eleven patients): One case of steroid induced intraocular pressure (IOP) and no other adverse events
corneal thickness (bullous keratopathy; in all but 1 case, corneas became clear): < 630 μm
